Like-named read-outs stand apart in the source and are kept apart here.
How the values were obtained:
[1] = target: T1, cytoplasmic domain of the human CSF-1R (Homo sapiens, UniProt P07333); assay: In vitro kinase assay for colony stimulating factor-1 receptor (AlphaScreen); format: biochemical; conditions: tested at about 1 μM, read-out: CSF-1R percent inhibition
T1 construct: Recombinant protein corresponding to the cytoplasmic domain of the human CSF-1R; purchased Invitrogen Corporation, Carlsbad, Calif; PV3249
T1 sequence (P07333 539-972 limits assumed): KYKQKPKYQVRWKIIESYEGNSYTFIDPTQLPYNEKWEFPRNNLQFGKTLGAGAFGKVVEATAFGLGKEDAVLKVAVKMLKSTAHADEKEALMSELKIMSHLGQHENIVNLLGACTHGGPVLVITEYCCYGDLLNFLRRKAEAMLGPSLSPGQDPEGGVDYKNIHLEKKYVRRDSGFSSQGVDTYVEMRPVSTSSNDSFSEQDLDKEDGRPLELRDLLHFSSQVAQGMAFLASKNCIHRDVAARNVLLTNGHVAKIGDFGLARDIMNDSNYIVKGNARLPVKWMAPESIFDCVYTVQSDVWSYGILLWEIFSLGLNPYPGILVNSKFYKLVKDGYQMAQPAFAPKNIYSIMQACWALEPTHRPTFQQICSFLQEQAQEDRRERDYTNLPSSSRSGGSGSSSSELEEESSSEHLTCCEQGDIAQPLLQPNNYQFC
Experimental: The kinase activity of various protein tyrosine kinases can be measured by providing ATP and a suitable peptide or protein tyrosine-containing substrate, and assaying the transfer of phosphate moiety to the tyrosine residue. Recombinant protein corresponding to the cytoplasmic domain of the human CSF-1R was purchased from Invitrogen Corporation, Carlsbad, Calif. U.S.A. (#PV3249). For each assay, test compounds were serially diluted, starting at 25 μM with 3 fold dilutions, in DMSO in 384 well plates then mixed with an appropriate kinase reaction buffer consisting of 50 mM Hepes, 5 mM MgCl2, 10 mM MnCl2, 0.1% BSA, pH 7.5, 1.0 mM dithiothreitol, 0.01% Tween 80 plus 1 μM ATP. […] Added to the stopped reaction mix was 30 μL of PT66 Alphascreen beads (Perkin Elmer, Boston, Mass., U.S.A.). The reaction was incubated overnight and read on the Envision (Perkin Elmer). Phosphorylated peptide product was measured with the AlphaScreen system (Perkin Elmer) using acceptor beads coated with anti-phosphotyrosine antibody PT66 and donor beads coated with streptavidin that emit a fluorescent signal at the 520-620 nm emission wave length if in close proximity.
CSF-1R kinase was added at final concentration of 4 nM.

kinase domain of cKIT = target: T2, kinase domain of cKIT (Homo sapiens, UniProt P10721); assay: Inhibition of cKIT kinase signaling in an in vitro biochemical assay (alphascreen); conditions: tested at about 1 μM, read-out: cKit percent inhibition
T2 construct: The kinase domain of cKIT was assayed in 50 mM Hepes; purchased Upstate 14-559
Experimental: (§1) The IC50 values for the inhibition of RTKs were determined in the alphascreen format measuring the inhibition by compound of phosphate transfer to a substrate by the respective enzyme. Briefly, the respective RTK domain purchased as human recombinant protein (cKIT Upstate #14-559, PDGFRb Invitrogen #P3082) were incubated with serial dilutions of compound in the presence of substrate and ATP concentrations within 3 times the Km of the enzyme.
(§2) Alphascreen PY20 beads were added to the stopped cKIT reactions and PY20 Ab/Protein A Alphascreen beads were added to the PDGFRβ stopped reactions. Both reactions were incubated overnight and read on the Alphascreen reader.

kinase domain of PDGFRβ = target: T3, kinase domain of PDGFRβ (Homo sapiens, UniProt P09619); assay: Inhibition of PDGFRb kinase signaling in an in vitro biochemical assay (alphascreen); conditions: tested at about 1 μM, read-out: PDGFRβ percent inhibition
T3 construct: The kinase domain of PDGFRβ was assayed in 50 mM Hepes; purchased Invitrogen P3082
Experimental: as §1, §2

T2 sequence (P10721 589-937 limits assumed): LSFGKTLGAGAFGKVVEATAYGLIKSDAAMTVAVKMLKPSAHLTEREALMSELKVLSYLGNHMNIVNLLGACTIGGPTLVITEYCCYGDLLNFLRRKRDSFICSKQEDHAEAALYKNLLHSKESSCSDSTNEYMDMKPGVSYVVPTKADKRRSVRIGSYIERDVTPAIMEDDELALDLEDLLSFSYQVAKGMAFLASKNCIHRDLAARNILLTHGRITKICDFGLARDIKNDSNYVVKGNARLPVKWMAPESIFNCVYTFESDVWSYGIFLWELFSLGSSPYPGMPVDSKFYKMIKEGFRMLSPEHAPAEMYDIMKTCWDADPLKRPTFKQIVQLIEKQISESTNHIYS
T3 sequence (P09619 600-962 limits assumed): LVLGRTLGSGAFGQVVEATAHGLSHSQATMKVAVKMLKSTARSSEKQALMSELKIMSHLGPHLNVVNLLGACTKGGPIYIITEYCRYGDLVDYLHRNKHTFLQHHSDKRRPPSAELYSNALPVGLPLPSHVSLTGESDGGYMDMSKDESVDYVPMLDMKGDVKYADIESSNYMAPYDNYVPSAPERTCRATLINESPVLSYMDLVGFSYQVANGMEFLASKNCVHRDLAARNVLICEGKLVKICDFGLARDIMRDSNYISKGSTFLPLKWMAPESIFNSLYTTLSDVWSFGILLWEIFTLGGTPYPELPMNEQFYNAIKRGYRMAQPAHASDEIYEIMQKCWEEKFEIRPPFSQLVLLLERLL

inhibition at 1 µM [1] [%] | inhibition at 1 µM (kinase domain of cKIT) [%] | inhibition at 1 µM (kinase domain of PDGFRβ) [%] | inhibition at 1 µM ([1]; compounds of Table 3) [%] | inhibition at 1 µM (kinase domain of cKIT; compounds of Table 3) [%] | inhibition at 1 µM (kinase domain of PDGFRβ; compounds of Table 3) [%] | SMILES
100 | 100 | 99 | – | – | – | Cn1cc(-c2cc(Oc3ccc4nc(N[C@@H]5CCCc6ccccc65)sc4c3)ccn2)cn1 [Example 363, (R)-6-(2-(1-methyl-1H-pyrazol-4-yl)pyridin-4-yloxy)-N-(1,2,3,4-tetrahydronaphthalen-1-yl)benzo[d]thiazol-2-amine]
– | – | – | 71 | 8 | 2 | CNC(=O)c1cc(Oc2ccc3nc(N[C@H]4CC[C@@H](NC(=O)[C@@H]5CCCN5C)CC4)sc3c2)ccn1 [Compound 137]
– | – | – | 63 | 12 | 0 | CN1CCN(c2cc(Oc3ccc4nc(N[C@@H]5CCCC[C@H]5O)sc4c3)ccn2)CC1 [Cmpd 176, (1R,2R)-2-(6-(2-(4-methylpiperazin-1-yl)pyridin-4-yloxy)benzo[d]thiazol-2-ylamino)cyclohexanol]
46 | 9 | 0 | – | – | – | N#Cc1cc(Oc2ccc3nc(NCC4CCCCC4)oc3c2)ccn1 [Compound 82, 4-[2-(Cyclohexylmethyl-amino)-benzooxazol-6-yloxy]-pyridine-2-carbonitrile]
90 | 15 | 6 | – | – | – | CNC(=O)c1cc(Oc2ccc3nc(NC4CCN(C(C)=O)CC4)sc3c2)ccn1 [Example 307, 4-(2-(1-acetylpiperidin-4-ylamino)benzo[d]thiazol-6-yloxy)-N-methylpicolinamide]
28 | 0 | 5 | – | – | – | CNC(=O)c1cc(Oc2ccc3nc(NCC4(C(=O)NC)CCCCC4)oc3c2)ccn1 [Compound 112, 4-{2-[(1-Methylcarbamoyl-cyclohexylmethyl)-amino]-benzooxazol-6-yloxy}-pyridine-2-carboxylic acid methylamide]
47 | 6 | 0 | – | – | – | CNC(=O)c1cc(Oc2ccc3nc(N[C@@H]4CCCC[C@H]4NC(=O)C(C)C)sc3c2)ccn1 [Example 327, 4-(2-((1R,2R)-2-isobutyramidocyclohexyl-amino)benzo[d]thiazol-6-yloxy)-N-methylpicolinamide]
60 | 8 | 14 | – | – | – | CNC(=O)c1cc(Oc2ccc3nc(NC4CCN(Cc5ccccc5)CC4)oc3c2)ccn1 [Compound 103, 4-[2-(1-Benzyl-piperidin-4-ylamino)-benzooxazol-6-yloxy]-pyridine-2-carboxylic acid methylamide]
– | – | – | 100 | 99 | 99 | CNC(=O)c1cc(Oc2ccc3nc(NC4CCCCCCC4)sc3c2)ccn1 [Compound 129]
55 | 63 | 25 | – | – | – | CNC(=O)c1cc(Oc2ccc3nc(N[C@H]4c5ccccc5C[C@H]4O)oc3c2)ccn1 [Compound 49, 4-[2-((1S,2R)-2-Hydroxy-indan-1-ylamino)-benzooxazol-6-yloxy]-pyridine-2-carboxylic acid methylamide]
100 | 100 | 75 | – | – | – | Cn1cc(-c2cc(Oc3ccc4nc(NCCC5CCOCC5)sc4c3)ccn2)cn1 [Example 361, 6-(2-(1-methyl-1H-pyrazol-4-yl)pyridin-4-yloxy)-N-(2-(tetrahydro-2H-pyran-4-yl)ethyl)benzo[d]thiazol-2-amine]
– | – | – | 86 | 0 | 0 | CNC(=O)c1cc(Oc2ccc3nc(NC[C@@H](C)O)sc3c2)ccn1 [Compound 99]
78 | 0 | 6 | – | – | – | CNC(=O)c1cc(Oc2ccc3nc(N[C@@H](C(=O)NC)c4ccccc4)oc3c2)ccn1 [Compound 36, 4-{2-[((R)-Methylcarbamoyl-phenyl-methyl)-amino]-benzo-oxazol-6-yloxy}-pyridine-2-carboxylic acid methylamide]
– | – | – | 86 | 3 | 0 | CNC(=O)c1cc(Oc2ccc3nc(N[C@H]4CC[C@@H](NC(=O)[C@@H]5CCCO5)CC4)sc3c2)ccn1 [Compound 136]
– | – | – | 95 | 3 | 0 | CNC(=O)c1cc(Oc2ccc3nc(N[C@H]4CCCC[C@H]4N)sc3c2)ccn1 [Example 292, 4-(2-((1S,2R)-2-aminocyclohexylamino)benzo[d]thiazol-6-yloxy)-N-methylpicolinamide]
– | – | – | 86 | 18 | 3 | O[C@@H]1CCCC[C@H]1Nc1nc2ccc(Oc3ccnc(N4CCCCC4)c3)cc2s1 [Cmpd 174, (1R,2R)-2-(6-(2-(piperidin-1-yl)pyridin-4-yloxy)benzo[d]thiazol-2-ylamino)cyclohexanol]
97 | 21 | 11 | – | – | – | CNC(=O)c1cc(Oc2ccc3nc(N[C@H](C(=O)OC)c4ccccc4)oc3c2)ccn1 [Compound 55, (S)-[6-(2-Methylcarbamoyl-pyridin-4-yloxy)-benzooxazol-2-ylamino]-phenyl-acetic acid methyl ester]
75 | 5 | 0 | – | – | – | CNC(=O)c1cc(Oc2ccc3nc(NCC4CN(Cc5ccccc5)CCO4)oc3c2)ccn1 (stereo not drawn) [Compound 120, 4-{2-[(4-Benzyl-morpholin-2-ylmethyl)-amino]-benzooxazol-6-yloxy}-pyridine-2-carboxylic acid methylamide]
– | – | – | 45 | 19 | 15 | Cn1nccc1-c1cnccc1Oc1ccc2nc(N[C@@H]3CCCC[C@H]3O)sc2c1 [Example 191]
45 | 6 | 3 | – | – | – | CNC(=O)c1cc(Oc2ccc3nc(NCCN4CCCC4)oc3c2)ccn1 [Compound 63, 4-[2-(2-Pyrrolidin-1-yl-ethylamino)-benzooxazol-6-yloxy]-pyridin-2-carboxylic acid methylamide]
77 | 16 | 36 | – | – | – | CNC(=O)c1cc(Oc2cc3sc(NCC4CCCCC4)nc3cc2F)ccn1 [Example 379, 4-(2-(cyclohexylmethylamino)-5-fluorobenzo[d]thiazol-6-yloxy)-N-methylpicolinamide]
55 | 0 | 7 | – | – | – | CNC(=O)c1cc(Oc2ccc3nc(N[C@H]4CCCC[C@H]4NC(=O)NC(C)C)sc3c2)ccn1 [Example 301, 4-(2-((1S,2R)-2-(3-isopropylureido)cyclohexyl-amino)benzo[d]thiazol-6-yloxy)-N-methylpicolinamide]
– | – | – | 48 | 4 | 0 | CNC(=O)c1cnccc1Oc1ccc2nc(N[C@@H]3CCCC[C@H]3O)sc2c1 [Example 291, 4-(2-((1R,2R)-2-hydroxycyclohexylamino)benzo[d]thiazol-6-yloxy)-N-methylnicotinamide]
15 | 13 | 13 | – | – | – | CNC(=O)c1cc(Oc2ccc3nc(N[C@H]4CCCC[C@H]4NC(=O)C(C)C)sc3c2)ccn1 [Example 310, 4-(2-((1S,2R)-2-isobutyramidocyclohexyl-amino)benzo[d]thiazol-6-yloxy)-N-methylpicolinamide]

SMILES | inhibition at 1 µM [1] [%] | inhibition at 1 µM (kinase domain of cKIT) [%] | inhibition at 1 µM (kinase domain of PDGFRβ) [%] | inhibition at 1 µM ([1]; compounds of Table 3) [%] | inhibition at 1 µM (kinase domain of cKIT; compounds of Table 3) [%] | inhibition at 1 µM (kinase domain of PDGFRβ; compounds of Table 3) [%]
O[C@@H]1CCCC[C@H]1Nc1nc2ccc(Oc3ccnc(C4=CCNCC4)c3)cc2s1 [Compound 161] | – | – | – | 54 | 20 | 26
